Target: T1, CDK11 (Inactive) (Homo sapiens, UniProt Q9BWU1)
T1 construct: purchased Thermo Fisher Scientific (Life Technologies) SelectScreen
Experiment: SelectScreen LanthaScreen
Format: binding
Conditions: 1 µM
Outline: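 NU5455 was profiled across the SelectScreen Broad panel of kinase activity and binding assays. Z'LYTE reactions such as CSF1R ran at apparent Km ATP, while the Adapta CAMK1 assay used ATP listed as 10. Values are given as percent.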

T1 sequence (Q9BWU1 whole entry): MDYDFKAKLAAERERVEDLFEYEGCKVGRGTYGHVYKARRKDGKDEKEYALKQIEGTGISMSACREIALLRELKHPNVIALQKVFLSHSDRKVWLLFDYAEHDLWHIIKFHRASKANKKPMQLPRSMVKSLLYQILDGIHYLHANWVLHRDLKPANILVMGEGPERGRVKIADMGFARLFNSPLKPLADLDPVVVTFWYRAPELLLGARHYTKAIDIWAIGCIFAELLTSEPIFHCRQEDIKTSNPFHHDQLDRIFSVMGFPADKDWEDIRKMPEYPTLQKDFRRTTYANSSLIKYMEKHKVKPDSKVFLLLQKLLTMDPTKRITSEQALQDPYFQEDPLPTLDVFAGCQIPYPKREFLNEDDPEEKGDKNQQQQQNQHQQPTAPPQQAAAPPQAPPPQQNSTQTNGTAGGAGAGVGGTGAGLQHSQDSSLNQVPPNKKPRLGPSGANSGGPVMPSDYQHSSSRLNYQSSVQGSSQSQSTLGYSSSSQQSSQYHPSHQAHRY

In the case of CN(C(=O)CN1CCOCC1)c1ccc2sc3c(-c4cccc5c(=O)cc(N6CC7CCC(C6)O7)oc45)cccc3c2c1 [NU5455], the “% displacement” value is reported as 1.7%.

— article PMC6934184, “Selective DNA-PKcs inhibition extends the therapeutic index of localized radiotherapy and chemotherapy” (The Journal of Clinical Investigation, 2019)
